PubChem BioAssay (NCI)
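These data come from cells grown in 96-well plates and exposed to compound for 48 hours at five concentrations. GI50: concentration for 50% inhibition of growth. The concentration for full growth arrest is given as TGI.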

Assays:
Assay in all cases: growth of human tumour cells (NCI), 48 h
[1] = system: HT29 colon
[2] = system: TK-10 renal
[3] = system: MCF7 breast
[4] = system: EKVX NSCLC
[5] = system: RPMI-8226 leukemia
[6] = system: UO-31 renal
[7] = system: CAKI-1 renal
[8] = system: SW-620 colon
[9] = system: HOP-62 NSCLC
[10] = system: NCI-H460 lung
[11] = system: NCI-H522 lung
[12] = system: U251 CNS
[13] = system: LOX IMVI melanoma
[14] = system: K-562 leukemia
[15] = system: M14 melanoma
[16] = system: 786-0 renal
[17] = system: SNB-19 CNS
[18] = system: NCI/ADR-RES ovarian
[19] = system: HCT-15 colon
[20] = system: CCRF-CEM leukemia
[21] = system: SK-MEL-5 melanoma
[22] = system: COLO 205 colon
[23] = system: SK-OV-3 ovarian
[24] = system: OVCAR-3 ovarian
[25] = system: DU-145 prostate
[26] = system: KM12 colon
[27] = system: HS 578T breast
[28] = system: OVCAR-8 ovarian
[29] = system: NCI-H23 lung
[30] = system: BT-549 breast
[31] = system: HCC-2998 colon
[32] = system: SNB-75 CNS
[33] = system: UACC-62 melanoma
[34] = system: OVCAR-5 ovarian
[35] = system: SF-539 CNS
[36] = system: OVCAR-4 ovarian
[37] = system: HCT-116 colon
[38] = system: SR leukemia
[39] = system: T-47D breast
[40] = system: IGROV1 ovarian
[41] = system: SK-MEL-2 melanoma
[42] = system: SF-268 CNS
[43] = system: ACHN renal
[44] = system: NCI-H226 lung
[45] = system: HOP-92 NSCLC
[46] = system: SK-MEL-28 melanoma
[47] = system: SN12C renal
[48] = system: MDA-MB-231 breast
[49] = system: UACC-257 melanoma
[50] = system: PC-3 prostate
[51] = system: A549 NSCLC
[52] = system: MDA-MB-435
[53] = system: SF-295 CNS
[54] = system: A498 renal
[55] = system: MALME-3M melanoma
[56] = system: MOLT-4 leukemia
[57] = system: RXF 393 renal
[58] = system: HL-60(TB) leukemia

COC(=O)[C@]12CC[C@@H](C)[C@H](C)[C@@H]1C1=CC[C@@H]3[C@@]4(C)CC(=O)[C@H](O)[C@@](C)(CO)[C@@H]4C(=O)C[C@@]3(C)[C@]1(C)CC2
GI50 [1]: 14.5 µM | TGI [1]: 30.4 µM | GI50 [2]: 19.7 µM | TGI [2]: 34 µM | GI50 [3]: 12.1 µM | TGI [3]: 27.5 µM | GI50 [4]: 14.8 µM | TGI [4]: 29.2 µM | GI50 [5]: 530 nM | TGI [5]: 19.4 µM | GI50 [6]: 5.7 µM | TGI [6]: 23.4 µM | GI50 [7]: 11.5 µM | TGI [7]: 24 µM | GI50 [8]: 15.1 µM | TGI [8]: 30.6 µM | GI50 [9]: 13.3 µM | TGI [9]: 27.4 µM | GI50 [10]: 6.66 µM | TGI [10]: 22.6 µM | GI50 [11]: 4.27 µM | TGI [11]: 22.1 µM | GI50 [12]: 11.7 µM | TGI [12]: 25.1 µM | GI50 [13]: 12.2 µM | TGI [13]: 25.8 µM | GI50 [14]: 11.2 µM | TGI [14]: 40.7 µM | GI50 [15]: 11.9 µM | TGI [15]: 25.1 µM | GI50 [16]: 12.4 µM | TGI [16]: 25.4 µM | GI50 [17]: 12.9 µM | TGI [17]: 27.8 µM | GI50 [18]: 12.1 µM | TGI [18]: 32.4 µM | GI50 [19]: 9.37 µM | TGI [19]: 23.3 µM | GI50 [20]: 3.38 µM | TGI [20]: 28.7 µM | GI50 [21]: 11.6 µM | TGI [21]: 23.9 µM | GI50 [22]: 14.3 µM | TGI [22]: 29.5 µM | GI50 [23]: 16.6 µM | TGI [23]: 30.5 µM | GI50 [24]: 11.6 µM | TGI [24]: 24.8 µM | GI50 [25]: 11.2 µM | TGI [25]: 23.6 µM | GI50 [26]: 10.8 µM | TGI [26]: 23.6 µM | GI50 [27]: 7.98 µM | TGI [27]: 30.4 µM | GI50 [28]: 4.89 µM | TGI [28]: 22.6 µM | GI50 [29]: 13.9 µM | TGI [29]: 31.1 µM | GI50 [30]: 11.3 µM | TGI [30]: 23.5 µM | GI50 [31]: 16.9 µM | TGI [31]: 33.9 µM | GI50 [32]: 12.7 µM | TGI [32]: 27.1 µM | GI50 [33]: 3.25 µM | TGI [33]: 20.8 µM | GI50 [34]: 20.8 µM | TGI [34]: 37.6 µM | GI50 [35]: 16.2 µM | TGI [35]: 31.6 µM | GI50 [36]: 11 µM | TGI [36]: 25.1 µM | GI50 [37]: 10.9 µM | TGI [37]: 23.3 µM | GI50 [38]: 5.95 µM | TGI [38]: 27.1 µM | GI50 [39]: 2440 nM | TGI [39]: 26.4 µM | GI50 [40]: 12.7 µM | TGI [40]: 28.1 µM | GI50 [41]: 14.5 µM | TGI [41]: 29.4 µM | GI50 [42]: 12.6 µM | TGI [42]: 26.5 µM | GI50 [43]: 12.9 µM | TGI [43]: 28.3 µM | GI50 [44]: 11.9 µM | TGI [44]: 35.3 µM | GI50 [45]: 15.3 µM | TGI [45]: 30.1 µM | GI50 [46]: 14.6 µM | TGI [46]: 31.9 µM | GI50 [47]: 12.4 µM | TGI [47]: 27.3 µM | GI50 [48]: 13.6 µM | TGI [48]: 29.2 µM | GI50 [49]: 16.8 µM | TGI [49]: 31.7 µM | GI50 [50]: 931 nM | TGI [50]: 15 µM | GI50 [51]: 15.8 µM | TGI [51]: 32.9 µM | GI50 [52]: 12.6 µM | TGI [52]: 25.1 µM | GI50 [53]: 10.6 µM | TGI [53]: 23.3 µM | GI50 [54]: 19.4 µM | TGI [54]: 33.9 µM | GI50 [55]: 4.52 µM | TGI [55]: 22 µM | GI50 [56]: 10.3 µM | TGI [56]: 27.1 µM | GI50 [57]: 13.8 µM | TGI [57]: 28.6 µM | GI50 [58]: 9.21 µM | TGI [58]: 28.4 µM
